The text below walks through data of US12391990B2, “Determination of magnesium body concentration” (Vanderbilt University, priority 2019, dated 2025).

For assay [1] the following is noted: 49 days of Mg repletion after 3-month Mg depletion, previous human study, from 0.81 to 0.86, p=0.06; cited from earlier work.
Assay [2] deals with 5-hmC levels in rectal tissues. Description: 5-hmC affinity enrichment sequencing of pre- and post-treatment rectal tissues. The following applies: rectal tissue. In kind it is in vivo, human. The procedure: 5-hmC alterations induced by Mg treatment. As mentioned, due to technological limitations, distinguishing 5-hmC from 5-mC has only recently been possible. Using the technology an evaluation was conducted of 5-hmC in normal rectal mucosa collected at baseline from 7 participants of the PPCCT. 5-hmC-specific affinity pull-down^142 samples were sequenced using the Illumina next-generation sequencing (50 bp single-end). The raw sequencing reads were mapped to the human genome reference (hg19) using Bowtie2^153. 5-hmC peaks (i.e. enriched 5-hmC regions) were then called using the MACS algorithm^154. There are two important findings. 1) There are approximately 13,000-15,000 high quality 5-hmC peaks across the genomes at p<1e-5 calculated by MACS.
Genome-wide 5-hmC was also measured in pre- (i.e. baseline) and post-treatment rectal tissues (i.e. after 3-month Mg supplementation). In this analysis, one individual was included in the treatment arm and the other in the placebo arm. Two-hundred ninety-six (296) and 1271 genes were found with ≥4-fold or ≥3-fold changes in 5-hmC levels from baseline, respectively, in the treatment arm compared to 39 and 176 in the placebo arm (Table 1). Thus, the treatment arm has a much larger number of affected genes than the placebo arm.
Furthermore, the majority of the changes found in 5-hmC caused by Mg treatment are up-modifications, very consistent with findings from in vitro and in vivo studies of vitamin C treatment^86;87.

Assay [3] in a line: Magnesium tolerance test (MTT), percent Mg retention from 24-hour urine. In kind it is in vivo, human. The following applies: after 12-week Mg supplementation, ongoing trial. The source says: In a magnesium tolerance test, a health care professional, such as a doctor, gives a participant a shot of a known amount of magnesium and then later uses the participant's urine to determine how much magnesium the participant's body retained, and how much the body eliminated.
In an exemplary study as described herein, participants who completed the study received a schedule of planned magnesium tolerance tests on two consecutive days. A 24-hour urine sample was collected for determining the basal urinary magnesium excretion prior to the intravenous infusion of magnesium sulfate. Another 24-hour urine sample was obtained starting with the IV infusion.
• 1. […] Percentage magnesium retained is calculated by the formula below (Mg: magnesium) […]
A Mg tolerance test, the most accurate approach to evaluate Mg nutriture, is conducted at the end of trial. […] For the Mg tolerance test, the participant's percent retention is calculated by the following formula: [1−(post infusion Mg excretion-pre infusion Mg excretion)/total Mg infused]×100. […]
MTT was conducted on 78 subjects in PPCCT. […] Urine magnesium level was measured using 7D70 Magnesium Reagent Kit from Abbot Laboratories (Abbott Park, TL). […] The absorbance of the arsenazo-magnesium complex is measured at 572 nm and is proportional to the concentration of magnesium present in the sample.

The next assay relates to embryonic stem cells. The following applies: vitamin C supplementation, cited from earlier work.
The subject of assay [4] is 5-hmC and 5-mC in tissues. The following applies: vitamin C supplementation, all three tissues; cited from earlier work.
Setting [5] is: treatment arm, one individual, after 3-month Mg supplementation.

`NCC(=O)[O-].NCC(=O)[O-].[Mg+2]` [Mg]: the “Increase in serum Mg” value in assay [1] is 6%. In addition, the “Direction of the majority of changes in 5-hmC” value in assay [2] (Mg treatment) is “up-modifications”. In assay [2] (setting [5]), the “Number of genes with ≥3-fold change in 5-hmC peaks from baseline” value worked out at 1271 and the “Number of genes with ≥4-fold change in 5-hmC peaks from baseline” value came out at 296. Besides, the “Individuals who still had Mg deficiency (retention ≥50% in Mg tolerance test)” value in assay [3] stood at 42%.

With `O=C1O[C@H]([C@@H](O)CO)C(O)=C1O` [vitamin C], the “Number of genes with over 2-fold changes in expression” value in the assay with embryonic stem cells (primarily up-modifications) is reported as “approximately 200”. Further, the “Change in 5-hmC” value in the assay on embryonic stem cells was “genome-wide increase in 5-hmC”. In addition, in assay [4], the “5-hmC concentrations in tissues” value is reported as “significantly elevated”.
